How the values were obtained:
parathyroid hormone [1] = assay: Regulating action of small doses of buserelin on parathyroid hormone in the plasma of rats; format: in vivo; details: young female rats with a high level of parathyroid hormone
Description: Increased levels of parathyroid hormone are found in bone marrow in cases of osteoporosis (Klin. Wochenschr. 62, 129-132, 1984); parathyroid hormone has an osteolytic effect. In young female rats with a high level of parathyroid hormone, small doses of the gonadoliberin agonist buserelin reduced parathyroid hormone in the plasma, although a parathyroid hormone level which has been reduced by infusion of calcium is raised by similar doses of buserelin (see German Patent Application No. P 33 32 329.1). It is possible that this regulating action of buserelin on parathyroid hormone plays a part in the treatment of ostalgia and osteoporosis.

parathyroid hormone [2] = assay: Action of buserelin to lower parathyroid hormone in blood serum of rats; format: in vivo, female Wistar rats
Procedure: 4 groups each containing 5 female Wistar rats were treated with placebo or three different doses (1 ng/kg, 5 ng/kg and 50 ng/kg) of buserelin. An initial blood sample was taken from all animals (initial value). Thereafter, the animals were given an injection of buserelin in physiological sodium chloride solution with the addition of 0.25% Haemaccel^R, and the placebo group was given the same amount of physiological sodium chloride solution with the addition of 0.25% Haemaccel^R. Blood samples were taken after 90 minutes and 240 minutes. The blood serum was investigated for parathyroid hormone. […] Explanation of the FIG. 1: The time course of the PTH level after i.v. administration of 1 ng/kg buserelin (curve 1), 5 ng/kg (curve 2) and 50 ng/kg (curve 3) is shown. […] All measurements are indicated with standard deviation (n=5).

parathyroid hormone [3] = details: after infusion of calcium; similar small doses; cited from earlier work

SMILES: CCNC(=O)[C@@H]1CCCN1C(=O)[C@H](CCCNC(=N)N)NC(=O)[C@H](CC(C)C)NC(=O)[C@@H](COC(C)(C)C)NC(=O)[C@H](Cc1ccc(O)cc1)NC(=O)[C@H](CO)NC(=O)[C@H](Cc1c[nH]c2ccccc12)NC(=O)[C@H](Cc1cnc[nH]1)NC(=O)[C@@H]1CCC(=O)N1 [buserelin, [D-Ser(Bu^t)^6]-gonadoliberin-(1-9)-nonapeptide ethylamide]
- parathyroid hormone in the plasma (parathyroid hormone [1]): reduced
- dose dependence of the parathyroid hormone lowering effect (parathyroid hormone [2]; 1, 5 and 50 ng/kg i.v., 90 minutes): best effect being observed at the low doses
- level of parathyroid hormone in blood serum after 90 minutes (parathyroid hormone [2]; i.v. 1 ng/kg, 5 ng/kg and 50 ng/kg buserelin, female Wistar rats, 90 minutes, n=5): decreased
- level of parathyroid hormone in blood serum after 240 minutes (parathyroid hormone [2]; i.v. 1, 5 and 50 ng/kg, 240 minutes): initial value had been regained
- parathyroid hormone level previously reduced by infusion of calcium (parathyroid hormone [3]): raised

Reference: US4788178A, “Use of gonadoliberin and gonadoliberin agonists for the treatment of climacteric complaints” (Hoechst Aktiengesellschaft, priority 1984, dated 1988)
